Reference: BindingDB's records for doi:10.1021/jm980294n (University of Utah, 1998)

Tests used:
[1] = Inhibition of insulin receptor mediated mitogenesis of NIH3T3 cells
[2] = Inhibition of Epidermal growth factor receptor mediated mitogenesis of NIH3T3 cells

| IC50 [1] [µM] | IC50 [2] [µM] | SMILES |
| --- | --- | --- |
| 9.8 | 22.7 | COc1ccc(Cc2cn(Cc3ccc(O)cc3)c(NC3=NC(=O)N(C)C3=O)n2)cc1 [5-[1-(4-Hydroxy-benzyl)-4-(4-methoxy-benzyl)-1H-imidazol-2-ylamino]-3-methyl-imidazole-2,4-dione] |
| 242 | 11.3 | COc1ccc(Cc2nc(NC3=NC(=O)N(C)C3=O)n(C)c2Cc2ccc(O)cc2)cc1 [4-(5-(4-hydroxybenzyl)-4-(4-methoxybenzyl)-1-methyl-1H-imidazol-2-ylamino)-1-methyl-1H-imidazole-2,5-dione] |
| 6.7 | 36.9 | COc1ccc(Cc2cn(Cc3ccc(OC)cc3)c(NC3=NC(=O)N(C)C3=O)n2)cc1 [5-[1,4-Bis-(4-methoxy-benzyl)-1H-imidazol-2-ylamino]-3-methyl-imidazole-2,4-dione] |
